These are literature values, as cited in patent US11478425B2, “Extended release compositions comprising pyridostigmine” (priority 2017, dated 2022).

Each structure is given as a SMILES string.

On to `CN(C)C(=O)Oc1ccc[n+](C)c1` [pyridostigmine], for which the bioavailability (NDA #020414) is 10-20%. For the same compound, under “oral”, the elimination half-life is 3 to 5 h and the “time-to-maximum peak plasma concentration” value is 1 to 2 h.
